Molecular target: T1, sGC α1/β1 heterodimer stably expressed in CHO-K1 cells (CHO-K1/sGC) (Homo sapiens, UniProt Q02108+Q02153)
T1 construct: expressed in transfected cells
T1 sequence (Q02108 1-690): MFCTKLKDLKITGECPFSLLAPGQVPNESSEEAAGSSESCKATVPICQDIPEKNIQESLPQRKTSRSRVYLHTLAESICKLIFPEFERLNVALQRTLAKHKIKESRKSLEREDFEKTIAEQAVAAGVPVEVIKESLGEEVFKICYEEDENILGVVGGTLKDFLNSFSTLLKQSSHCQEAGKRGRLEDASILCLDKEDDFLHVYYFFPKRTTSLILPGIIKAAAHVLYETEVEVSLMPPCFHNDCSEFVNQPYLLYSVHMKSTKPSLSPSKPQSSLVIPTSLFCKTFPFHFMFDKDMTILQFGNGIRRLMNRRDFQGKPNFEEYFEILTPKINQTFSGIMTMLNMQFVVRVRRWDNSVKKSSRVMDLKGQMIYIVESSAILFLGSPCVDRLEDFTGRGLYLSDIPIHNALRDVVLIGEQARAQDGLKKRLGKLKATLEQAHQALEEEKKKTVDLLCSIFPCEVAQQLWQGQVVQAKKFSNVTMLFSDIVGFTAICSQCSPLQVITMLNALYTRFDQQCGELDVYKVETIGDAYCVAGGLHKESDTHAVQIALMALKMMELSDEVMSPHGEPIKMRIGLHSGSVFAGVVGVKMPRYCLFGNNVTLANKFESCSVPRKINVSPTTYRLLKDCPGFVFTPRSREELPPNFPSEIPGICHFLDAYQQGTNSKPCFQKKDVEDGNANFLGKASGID
T1 sequence (Q02153 1-619): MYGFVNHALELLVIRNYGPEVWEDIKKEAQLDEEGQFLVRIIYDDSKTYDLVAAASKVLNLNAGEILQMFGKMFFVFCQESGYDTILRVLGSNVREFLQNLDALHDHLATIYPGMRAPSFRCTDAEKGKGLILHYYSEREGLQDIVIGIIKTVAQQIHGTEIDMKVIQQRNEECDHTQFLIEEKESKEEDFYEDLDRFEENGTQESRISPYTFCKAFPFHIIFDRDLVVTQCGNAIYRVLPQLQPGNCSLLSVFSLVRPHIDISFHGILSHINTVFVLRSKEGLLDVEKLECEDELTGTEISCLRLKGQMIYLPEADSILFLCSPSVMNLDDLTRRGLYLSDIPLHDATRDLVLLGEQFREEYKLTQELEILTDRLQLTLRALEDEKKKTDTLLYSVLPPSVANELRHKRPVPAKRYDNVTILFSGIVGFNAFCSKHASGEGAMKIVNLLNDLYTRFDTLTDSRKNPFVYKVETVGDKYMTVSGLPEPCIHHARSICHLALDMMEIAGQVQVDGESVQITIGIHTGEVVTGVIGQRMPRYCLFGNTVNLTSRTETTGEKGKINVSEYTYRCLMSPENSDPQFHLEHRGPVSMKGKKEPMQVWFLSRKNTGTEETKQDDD
Assay: Cell-based sGC functional assay (CASA assay), cGMP generation by HTRF
Conditions: for Emax: CHO-K1, maximum cGMP production of Compound A set to 100% activation, read-out: % Act. (percent activation relative to Compound A); for EC50: CHO-K1/sGC cells, 1 hr at 37° C., 4P fit, presence or absence of DETA-NO not given, read-out: IP (nM) (inflection point); for % Act. (percent activation relative to Compound A): maximum cGMP production of Compound A set to 100% activation
Text: Biological Assay 1: Cell-Based sGC Functional Assay (CASA Assay) Rationale
sGC is a heme-containing enzyme that converts GTP to secondary messenger cGMP. Increases in cGMP levels affect several physiological processes including vasorelaxation through multiple downstream pathways. […] Heme-dependent activators (HDAs) preferentially activate sGC containing a ferrous heme group. To determine the effect of sGC activators on enzyme activity, the CASA assay was developed to monitor the generation of cGMP in a cell line that stably expresses the heterodimeric sGC protein.
A CHO-K1 cell line stably expressing the sGC α1/β1 heterodimer was generated using a standard transfection protocol. CHO-K1 cells were transfected with plasmids pIREShyghsGCα1 and pIRESneo-hsGCβ1 simultaneously using FUGENE reagent. Clones that stably express both subunits were selected with hygromycin and neomycin for ˜2 weeks. Clone #7 was chosen for the assay and was designated CHO-K1/sGC. CHO-K1/sGC cells were maintained in F-K12 medium containing 10% heat-inactivated Fetal Bovine Serum (FBS), 100 μg/mL penicillin/streptomycin, 0.5 mg/mL hygromycin and 0.25 mg/mL G418. The cells were then cryopreserved in LN2. On the day of the assay, cells were thawed and resuspended in EBSS Assay Buffer (Sigma, E3024) supplemented with 5 mM MgCl2, 10 mM HEPES (4-(2-hydroxyethyl)piperazine-1-ethanesulfonic acid) and 0.05% BSA (bovine serum albumin) (EAB) and cell density was then adjusted to 4×10^5/mL with EAB. IBMX (3-isobutyl-1-methylxanthin, 0.5 mM) was added to inhibit degradation of cGMP. Compounds were diluted from DMSO stock solutions and added to the assay at a final DMSO concentration of 2.5%. Cells were incubated with compounds in the presence and absence of 1 μM of Diethylenetriamine/nitric oxide adduct (DETA-NO; Sigma, 17018) for 1 hr at 37° C. At the end of the incubation period, the reaction was terminated and the cells were lysed with the detection reagents from Cisbio Kits. The level of intracellular cGMP was determined using an HTRF-based assay kit (CisBio, 62GM2PEC), which detects the displacement of a fluorescence labeled cGMP from its specific antibody. The cGMP produced by test compounds was directly compared to the maximum cGMP production (this value was set to equal 100% activation.) of the published sGC-HDA Compound A:
[drawing 101] (Example 1 in WO 2010/065275, published Jun. 10, 2010). The test compounds' activities were then expressed as a percentage of Compound A, the standard in every experiment. This percent activation was calculated either in the presence or absence of DETA-NO which was then plotted. IP and maximum fold induction was derived using ADA analysis software for 4P fit.
The compounds in the Examples of the instant invention had inflection points (IP) less than or equal to 10 μM and many had IPs less than or equal to about 1 μM.

SMILES	Emax [%]	EC50 [nM]	% Act. (percent activation relative to Compound A) [%]
Nc1nc(-c2cn3ccnc3c(OCC(F)(F)C(F)(F)F)n2)nc2c1C(c1ccc(F)cc1)(C1CC1)C(=O)N2 (stereo not drawn) [Example 14B, 4-amino-5-cyclopropyl-5-(4-fluorophenyl)-2-[8-(2,2,3,3,3-pentafluoropropoxy)imidazo[1,2-a]pyrazin-6-yl]-5,7-dihydro-6H-pyrrolo [2,3-d]pyrimidin-6-one]	96	534	–
CC1(c2ccc(F)cc2)C(=O)Nc2nc(-c3cn4ccnc4c(OCC4CC(F)(F)C4)n3)nc(N)c21 (stereo not drawn) [Example 31A, 4-amino-2-{8-[(3,3-difluoro-cyclobutyl)methoxy]imidazo [1,2-a]pyrazin-6-yl}-5-(4-fluoro-phenyl)-5-methyl-5,7-dihydro-6H-pyrrolo[2,3-d] pyrimidin-6-one]	98	145	–
CC1(c2ccc(F)cc2)C(=O)Nc2nc(-c3cn4ccnc4c(Oc4cccc(F)c4F)n3)nc(N)c21 (stereo not drawn) [Example 15A, 4-amino-2-[8-(2,3-difluorophenoxy)imidazo[1,2-a]pyrazin-6-yl]-5-(4-fluorophenyl)-5-methyl-5,7-dihydro-6H-pyrrolo[2,3-d] pyrimidin-6-one]	104	23	–
CC1(c2ccccc2)C(=O)Nc2nc(-c3cn4ccnc4c(Oc4cc(F)cc(F)c4F)n3)nc(N)c21 (stereo not drawn) [Example 12B, 4-amino-5-methyl-5-phenyl-2-[8-(2,3,5-trifluoro-phenoxy)imidazo [1,2-a]pyrazin-6-yl]-5,7-dihydro-6H-pyrrolo[2,3-d] pyrimidin-6-one]	99	47	–
CC1(c2ccc(F)cc2)C(=O)Nc2nc(-c3cn4ccnc4c(Oc4cc(F)cc(F)c4F)n3)nc(N)c21 (stereo not drawn) [Example 17A, 4-amino-5-(4-fluorophenyl)-5-methyl-2-[8-(2,3,5-trifluorophenoxy)imidazo[1,2-a]pyrazin-6-yl]-5,7-dihydro-6H-pyrrolo [2,3-d]pyrimidin-6-one]	100	17	–
CC1(c2ccc(F)cc2)C(=O)Nc2nc(-c3cn4ccnc4c(Oc4ccc(F)cc4)n3)nc(N)c21 (stereo not drawn) [Example 20A, 4-amino-2-[8-(4-fluorophenoxy)imidazo[1,2-a]pyrazin-6-yl]-5-(4-fluorophenyl)-5-methyl-5,7-dihydro-6H-pyrrolo[2,3-d] pyrimidin-6-one]	109	42	–
CC1(c2ccc(F)cc2)C(=O)Nc2nc(-c3cn4ccnc4c(Oc4cncc(C(F)(F)F)c4)n3)nc(N)c21 (stereo not drawn) [Example 21A, 4-amino-5-(4-fluorophenyl)-5-methyl-2-(8-{[5-(trifluoromethyl)pyridin-3-yl]oxy}imidazo[1,2-a]pyrazin-6-yl)-5,7-dihydro-6H-pyrrolo[2,3-d] pyrimidin-6-one]	137	1060	–
CC1(c2ccc(F)cc2)C(=O)Nc2nc(-c3cn4ccnc4c(Oc4ccccc4)n3)nc(N)c21 (stereo not drawn) [Example 9A, 4-amino-5-(4-fluorophenyl)-5-methyl-2-(8-phenoxyimidazo [1,2-a]pyrazin-6-yl)-5,7-dihydro-6H-pyrrolo[2,3-d] pyrimidin-6-one]	124	28	–

The remaining lines, values ahead:

Emax [%]	EC50 [nM]	% Act. (percent activation relative to Compound A) [%]	SMILES
109	163	–	CC1(c2ccc(Cl)cc2)C(=O)Nc2nc(-c3cn4ccnc4c(NCC4CC(F)(F)C4)n3)nc(N)c21 (stereo not drawn) [Example 58A, 4-amino-5-(4-chlorophenyl)-2-(8-{[(3,3-difluorocyclo-butyl)methyl]amino}imidazo [1,2-a]pyrazin-6-yl)-5-methyl-5,7-dihydro-6H-pyrrolo[2,3-d] pyrimidin-6-one]
98	266	–	CCC1(CNc2nc(-c3nc(N)c4c(n3)NC(=O)C4(C)c3ccc(F)cc3)cn3ccnc23)CC1 (stereo not drawn) [Example 54A, 4-amino-2-(8-{[(1-ethyl-cyclopropyl)methyl]amino}imidazo[1,2-a]pyrazin-6-yl)-5-(4-fluoro-phenyl)-5-methyl-5,7-dihydro-6H-pyrrolo[2,3-d] pyrimidin-6-one]
–	231	87	CC(Nc1nc(-c2nc(N)c3c(n2)NC(=O)C3(C)c2ccc(Cl)cc2)cn2ccnc12)c1ccccc1 (stereo not drawn) [Example 74, 4-amino-5-(4-chlorophenyl)-5-methyl-2-{8-[(1-phenylethyl)amino]imidazo [1,2-a]pyrazin-6-yl}-5,7-dihydro-6H-pyrrolo[2,3-d] pyrimidin-6-one]
103	833	–	C[C@H](Oc1nc(-c2nc(N)c3c(n2)NC(=O)C3(C)c2ccc(Cl)cc2)cn2ccnc12)c1ccccc1 (single isomer, unassigned; fast eluting) [Example 69A]
–	501	94	CC1(c2ccc(Cl)cc2)C(=O)Nc2nc(-c3cn4ccnc4c(OCC4CCCOC4)n3)nc(N)c21 (single isomer, unassigned; slow eluting) [Example 67B, 4-amino-5-(4-chlorophenyl)-5-methyl-2-[8-(tetrahydro-2H-pyran-3-ylmethoxy)imidazo[1,2-a]pyrazin-6-yl]-5,7-dihydro-6H-pyrrolo [2,3-d] pyrimidin-6-one (slow eluting)]
94	468	–	CC1(c2ccc(F)cc2)C(=O)Nc2nc(-c3cn4cc(C(F)(F)F)nc4c(Oc4cccc(F)c4)n3)nc(N)c21 (stereo not drawn) [Example 35A, 4-Amino-2-(8-(3-fluorophenoxy)-2-(trifluoromethyl)imidazo[1,2-a]pyrazin-6-yl)-5-(4-fluorophenyl)-5-methyl-5H-pyrrolo[2,3-d]pyrimidin-6(7H)-one]
92	748	–	CC1(c2ccc(F)cc2)C(=O)Nc2nc(-c3cn4cc(C5CC5)nc4c(Oc4cccc(F)c4)n3)nc(N)c21 (stereo not drawn) [Example 38A, 4-amino-2-[2-cyclopropyl-8-(3-fluorophenoxy)imidazo[1,2-a]pyrazin-6-yl]-5-(4-fluorophenyl)-5-methyl-5,7-dihydro-6H-pyrrolo[2,3-d] pyrimidin-6-one]
